The numbers were not newly measured in patent EP1844783A1 (priority 2006, dated 2007), which cites them from elsewhere.

This data set relates to EAE. As to conditions: Craner et al., 2005.

In the case of `O=C1NC(=O)C(c2ccccc2)(c2ccccc2)N1` [phenytoin], the “ameliorates the inflammatory cell infiltrate in EAE” value is listed as 75%.
